Among the data in ChEMBL document CHEMBL1143283, “Preliminary biological evaluations of new thalidomide analogues for multiple sclerosis application” (Bioorg Med Chem Lett, 2009) are IC50 and Activity values, retold here.

Experiment [1] can be described thus: Antiproliferative activity against human EAhy926 cells. It is filed as functional, cell-based. The note with it: EA.hy 926.
The subject of experiment [2] is Mus musculus. The experiment is described as follows: Antiangiogenesis activity against MOG peptide, pertussis toxin, Mycobacterium tuberculosis-induced experimental allergic encephalomyelitis C57BL/6J mouse model assessed as inhibition of multiple sclerosis at dose equivalent to 100 mg/kg of thalidomide up to 15 days. Further details: dose 100 mg/kg. It is filed as functional, organism-based.

Experiment [3] has as its system EA.hy 926. As to the kind of experiment: Antiproliferative activity against human EAhy926 cells at 12 uM. It is filed as functional, cell-based.
Experiment [4] relates to EA.hy 926. As to the kind of experiment: Antiproliferative activity against human EAhy926 cells at 10 uM. In kind it is functional, cell-based.
The subject of experiment [5] is Mus musculus. The experiment is described as follows: Antiangiogenesis activity against MOG peptide, pertussis toxin, Mycobacterium tuberculosis-induced experimental allergic encephalomyelitis C57BL/6J mouse model assessed as inhibition of multiple sclerosis at 100 mg/kg up to 15 days. It is filed as functional, organism-based. Further details: dose 100 mg/kg.

Active and inactive are the calls of the source. The calls are words filed in the database; no cut-off is given here.

Regarding `CC(C)(C)OC(=O)NCCNc1ccc2c(c1)C(=O)N(C1CCC(=O)NC1=O)C2=O` (stereo not drawn), half-maximal inhibition in experiment [1] (IC50) was put at 41 µM. With `Nc1ccc2c(c1)C(=O)N(C1CCC(=O)NC1=O)C2=O` (stereo not drawn), the outcome in experiment [2] was inactive. Regarding `NCCNc1ccc2c(c1)C(=O)N(C1CCC(=O)NC1=O)C2=O` (stereo not drawn), the outcome in experiment [2], in experiment [3] and in experiment [4] was inactive. As for `O=C1CCC(N2C(=O)c3ccccc3C2=O)C(=O)N1` (stereo not drawn) [THALIDOMIDE], the outcome in experiment [5] was inactive. For the same compound, 200 µM corresponded to half-maximal inhibition in experiment [1] (IC50). With `O=C1CCC(N2C(=O)c3ccc([N+](=O)[O-])cc3C2=O)C(=O)N1` (stereo not drawn), the result in experiment [3] and in experiment [4] was inactive. For the compound `O=C1CCC(N2C(=O)c3ccc(NCCCCC(NC(=O)[C@H](O)[C@H](O)[C@H](O[C@@H]4O[C@H](CO)[C@H](O)[C@H](O)[C@H]4O)[C@H](O)CO)C(=O)NCCC(F)(F)C(F)(F)C(F)(F)C(F)(F)C(F)(F)C(F)(F)C(F)(F)C(F)(F)F)cc3C2=O)C(=O)N1` (stereo partly drawn), in experiment [2], the outcome was inactive.

Regarding `NCCNc1cccc2c1C(=O)N(C1CCC(=O)NC1=O)C2=O` (stereo not drawn), in experiment [1], the half-maximal inhibitory concentration (IC50) (as a rule, the concentration that gives 50% inhibition) was 150 µM. `O=C1CCC(N2C(=O)c3ccc(C(=O)O)cc3C2=O)C(=O)N1` (stereo not drawn): the result in experiment [2] was Active. In the case of `O=C1CCC(N2C(=O)c3ccc(NCCCNC(=O)C(O)C(O)C(O[C@@H]4O[C@H](CO)[C@H](O)[C@H](O)[C@H]4O)C(O)CO)cc3C2=O)C(=O)N1` (stereo partly drawn), the result in experiment [2] was Active.
